Test results: patent US8741932B2, “Imidazopyridine derivatives” (Piramal Enterprises Limited, priority 2009, dated 2014)
pIC50: −log10 of the molar value. Read-outs that look alike come from different tables or passages of the source.

Assays:
[1] = tested on: IL-6; assay: Human monocyte assay, LPS-stimulated IL-6; format: cell-based; settings: Monocyte; human monocytes, 1 μg/ml LPS, 5 hours
Procedure, shortened: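 Adherent human PBMC-derived monocytes (2×10^4/well) were cultured 48 h, preincubated 30 min with compound or 0.5% DMSO, then stimulated with 1 μg/ml E. coli LPS for 5 h at 37° C. TNF-α and IL-6 in supernatants were measured by ELISA.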

[2] = tested on: H460; assay: Cytotoxicity assay (propidium iodide), H460; format: cell-based; settings: Homo sapiens, NCI-H460; H460 (C1b, lung); 48 hours
[3] = tested on: HCT116; assay: Cytotoxicity assay (propidium iodide), HCT116; format: cell-based; settings: Homo sapiens, HCT-116; HCT116 (C4b, colon); 48 hours
[4] = tested on: A549; assay: Cytotoxicity assay (propidium iodide), A549; format: cell-based; settings: Homo sapiens; A549 (C1a, lung); 48 hours
Experimental: (§1) Cells from cell lines as mentioned in the table given below were seeded at a density of 3000 cells/well in a white opaque 96-well plate. Following incubation at 37° C./5% CO2 for a period of 18-24 hours, the cells were treated with various concentrations (stock solution was prepared in DMSO and subsequent dilutions were made in media as per ATCC guidelines) of the representative compounds of present invention (refer table 3) for a period of 48 hours. At the end of treatment, the spent culture medium was discarded, the cells were washed with 1×PBS and 200 μl of 7 μg/ml propidium iodide was added to each well. The plates were frozen at −70° C. for at least 24 hours. For analysis, the plates were brought to RT, allowed to thaw and were read in PolarStar fluorimeter with the fluorescence setting. The percentage of viable cells in the non treated set of wells was considered to be 100 and the percentage viability following treatment was calculated accordingly. IC50 values were calculated from graphs plotted using these percentages.

[5] = tested on: PC3; assay: Cytotoxicity assay (propidium iodide), PC3; settings: Homo sapiens, PC-3, 48 h, read-out: IC50 cytotoxicity
Experimental: as §1

[6] = tested on: OVCAR 3; assay: Cytotoxicity assay (propidium iodide), OVCAR 3; format: cell-based; settings: Homo sapiens; OVCAR 3 (C3c, ovarian); 48 hours
Experimental: as §1

[7] = tested on: A2780; assay: Cytotoxicity assay (propidium iodide), A2780; format: cell-based; settings: Homo sapiens; A2780 (C3a, ovarian); 48 hours
[8] = target: T1, mTOR (Homo sapiens, UniProt P42345); assay: mTOR activity assay (cell ELISA, Phospho-AKT Ser 473, A2780 cells); format: cell-based
T1 construct: endogenous in cells; host or cells: A2780 ovarian cell line (ATCC)
Experimental: Seed cells (Ovarian cell line A2780, ATCC) were plated in a 96 well microtitre plate at a density of 50,000 cells/cm^2 in appropriate complete cell culture medium. The cells were allowed to adhere for 18-24 hours. The cells were allowed to starve for 24 hours. […] Then the cells were stimulated with 20% FCS for 30 minutes. A typical assay would consist of a set of unstimulated cells, a set of stimulated cells and a set of cells treated with compounds of present invention and a set of cells treated with the stimulator. The medium was discarded. The cells were fixed with 100 μL of 3.7% formaldehyde for 15 minutes. The formaldehyde was discarded by inverting the plate and tapping it on a thick tissue paper layer to remove traces. The cells were washed and permeabilized with 200 μL PBS+Triton-X 100 solution (hereafter referred to as PBS-Triton, containing 0.1% triton-X 100 in 1×PBS) three times, incubating the cells each time for 5 minutes. 100 μL blocking solution (10% FCS in PBS-Triton) was added and incubated for 1 hour at 25° C. The blocking solution was discarded and cells were incubated with the primary antibody in PBS-Triton at a dilution of 1:500 for 1 hour at RT (25° C.). [The primary antibody is Phospho-AKT (Ser 473); Cell Signaling; Cat. No. 9271]. The primary antibody solution was discarded and the cells were washed 3 times with PBS-Triton solution and incubated with the HRP-conjugated secondary antibody in PBS-Triton at a dilution of 1:500 for 1 hour at RT (25° C.). The cells were washed 3 times with PBS-Triton followed by two washes with PBS (to remove traces of triton-X 100). The OPD (o-phenylene diamine dihydrochloride) substrate was prepared for detection of the signal by dissolving one tablet set (two tablets) of SigmaFast OPD (Sigma, Cat No. P9187) in 20 mL distilled water. It should be protected from light. 100 μL OPD solutions was added to the wells and the plate was incubated in the dark for 3-5 minutes (depending upon the development of the color). The reaction was stopped by adding 50 μL 2 N H2SO4. The absorbance was measured at 490 nm. The values were expressed in the treated samples, in terms of percentage or fold decrease in AKT phosphorylation with respect to the induced sample. PI-103 (Calbiochem, USA) was used as a standard.

[9] = tested on: STAT3; assay: STAT3 bioassay (Hela Stat3-luc, luciferase); format: cell-based; settings: Homo sapiens, Oncostatin M induction
Experimental: Cells were seeded (Hela Stat3-luc, ATCC P/N 30-2002) in a white 96 well plate (Nunc cat.no.136101) at a density of 20,000cells/well in 179 μl volume per well (DMEM from Sigma containing 10% FCS). The plate was incubated for 24 hours at 37° C./5% CO2. The cells (wells in triplicates) were then treated with 1 μl/well of 200× stock of the desired compound concentration prepared in 100% DMSO. Curcumin was used as a standard or positive control, added 10 μg/ml in triplicate. DMSO was used as medium control (1 μl/well added in triplicates). The plate was incubated at 37° C./5% CO2 for 1 hour. 20 μl/well Oncostatin M (Oncostatin M, Human, Recombinant, E. coli, Cat.No. 496260, 10 μg from Calbiochem) was added to treated wells, induction control (in triplicate) (1000 ng/ml stock prepared in serum free medium to get final concentration 100 ng/ml). The plate was then incubated for 7-8 hours at 37° C./5% CO2 for induction. A typical assay would consist of triplicate of medium control, triplicate of induction control, triplicate of positive/standard control and test compounds at desired concentration in triplicates. For termination Luciferase assay protocol was followed where the culture medium was removed from all the wells.
200 μl well of PBS was added to remove traces of medium and compound. The PBS was discarded. 40 μl/well of 1× lysis buffer was added to all the wells. The plate was incubated at RT for 20 minutes with intermittent shaking. 100 μl/well of LAB reagent was added to all the wells in dark. {LAB reagent for 1 plate=8 ml Luciferase assay buffer (LAB)+1 ml Coenzyme A (Sigma cat no. C3019) (2.1 mg/ml stock in LAB)+530 μL of ATP (Sigma cat.no.A2383) (5.85 mg/ml stock in LAB)+1 ml luciferin reagent (Promega cat no.245355) (2 mg/ml stock in LAB, protect from light)}.
The luminescence was immediately read on polar star. The values were expressed as percentage inhibition, in terms of treated values to that STAT3 (induction control). IC50 values were calculated from graphs using these percentages.

[10] = target: T2, PI3Kα kinase (Homo sapiens, UniProt P42336); assay: Kinase assay (PI3Kα); format: biochemical; settings: for IC50: read-out: IC50 (μM) for PI3K inhibition
T2 construct: purchased Millipore, USA
T2 sequence (P42336 whole entry): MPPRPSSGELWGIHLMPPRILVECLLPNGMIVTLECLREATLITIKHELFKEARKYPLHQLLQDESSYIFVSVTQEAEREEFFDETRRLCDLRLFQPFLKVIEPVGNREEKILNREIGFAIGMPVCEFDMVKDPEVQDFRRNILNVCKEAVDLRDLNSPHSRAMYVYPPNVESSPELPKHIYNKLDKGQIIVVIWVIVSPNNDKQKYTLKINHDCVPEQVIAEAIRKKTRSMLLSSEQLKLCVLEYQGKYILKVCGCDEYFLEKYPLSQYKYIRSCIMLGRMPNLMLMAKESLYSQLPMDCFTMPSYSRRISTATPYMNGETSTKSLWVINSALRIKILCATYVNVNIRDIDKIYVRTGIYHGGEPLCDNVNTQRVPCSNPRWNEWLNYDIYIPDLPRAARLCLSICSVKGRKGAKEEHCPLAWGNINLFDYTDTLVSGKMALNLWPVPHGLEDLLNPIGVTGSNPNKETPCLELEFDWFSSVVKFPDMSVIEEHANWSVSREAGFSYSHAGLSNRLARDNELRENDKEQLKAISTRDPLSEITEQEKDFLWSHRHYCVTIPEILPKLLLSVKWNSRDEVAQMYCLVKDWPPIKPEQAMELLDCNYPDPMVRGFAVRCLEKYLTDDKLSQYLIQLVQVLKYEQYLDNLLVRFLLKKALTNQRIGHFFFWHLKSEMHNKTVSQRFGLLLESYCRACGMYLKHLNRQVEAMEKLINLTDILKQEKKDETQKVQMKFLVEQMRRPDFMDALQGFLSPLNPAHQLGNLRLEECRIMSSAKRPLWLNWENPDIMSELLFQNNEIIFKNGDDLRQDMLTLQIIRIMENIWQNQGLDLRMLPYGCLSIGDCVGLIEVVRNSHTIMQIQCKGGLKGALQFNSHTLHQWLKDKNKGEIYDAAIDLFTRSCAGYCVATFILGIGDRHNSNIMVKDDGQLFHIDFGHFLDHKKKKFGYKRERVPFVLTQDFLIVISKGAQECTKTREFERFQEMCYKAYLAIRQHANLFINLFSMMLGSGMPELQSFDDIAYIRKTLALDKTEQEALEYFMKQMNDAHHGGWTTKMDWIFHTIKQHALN
T2 sequence (P27986 whole entry partner): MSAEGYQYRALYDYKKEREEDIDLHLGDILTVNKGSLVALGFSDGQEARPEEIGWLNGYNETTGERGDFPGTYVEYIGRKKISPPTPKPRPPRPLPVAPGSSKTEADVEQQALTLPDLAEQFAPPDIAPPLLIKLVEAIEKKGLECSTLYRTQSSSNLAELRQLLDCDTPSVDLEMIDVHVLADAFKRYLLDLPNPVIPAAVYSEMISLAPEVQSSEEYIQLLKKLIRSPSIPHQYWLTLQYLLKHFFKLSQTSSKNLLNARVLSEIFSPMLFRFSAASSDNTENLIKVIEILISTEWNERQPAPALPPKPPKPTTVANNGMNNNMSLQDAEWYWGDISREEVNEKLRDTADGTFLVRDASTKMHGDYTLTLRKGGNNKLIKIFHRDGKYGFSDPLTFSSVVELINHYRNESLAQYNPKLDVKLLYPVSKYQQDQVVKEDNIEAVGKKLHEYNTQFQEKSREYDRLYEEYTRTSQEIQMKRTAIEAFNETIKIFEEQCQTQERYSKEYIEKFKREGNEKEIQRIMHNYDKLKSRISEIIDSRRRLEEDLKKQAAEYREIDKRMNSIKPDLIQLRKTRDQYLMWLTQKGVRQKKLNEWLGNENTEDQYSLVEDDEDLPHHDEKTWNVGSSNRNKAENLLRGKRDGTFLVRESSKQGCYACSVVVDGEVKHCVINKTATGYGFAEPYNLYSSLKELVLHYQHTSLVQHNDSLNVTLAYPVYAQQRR
Experimental: The kinase reaction was carried out in a 25 μL volume in a 1.5 mL microcentrifuge tube. The reaction mixture consisted of kinase buffer (10 mM Hepes, pH 7.5, 50 mM MgCl2), 20 ng PI3Kα kinase (Millipore, USA), 12.5 μg phosphotidylinositol (PI), 10 μM ATP and 1 μCi ^32γ P […]. […] The reactions were incubated at 30° C. for 20 minutes and were terminated by adding 1:1 mixture of MeOH and CHCl3. The tube contents were mixed on a vortex mixer and centrifuged at 10000 rpm for 2 minutes. 10 μL of the organic (lower) phase was spotted on to a TLC plate (silica, mobile phase: n-propanol and 2 M glacial acetic acid in 65:35 ratio). The plates were dried and exposed to an X-ray film. The bands appearing as a result of ^32γ P incorporation in PI were quantitated using the Quantityl)ne (BioRad, USA) densitometry program. PI-103 (Calbiochem, USA) was used as a standard.

[11] = tested on: TNF-α; assay: Human monocyte assay, LPS-stimulated TNF-α; format: cell-based; settings: human monocytes, 1 μg/ml LPS, 5 hours
Experimental: The assay was designed as in the reference, Physiol.
Peripheral blood mononuclear cells (hPBMC) were harvested from human blood and suspended in RPMI 1640 culture medium containing 10% FCS, 100 U/mL penicillin and […] streptomycin (assay medium). Monocytes in the hPBMCs were counted using a Coulter Counter following which the cells were resuspended at 2×10^5 monocytes/mL. A cell suspension containing 2×10^4 monocytes was aliquoted per well of a 96-well plate. Subsequently, the hPBMCs were incubated for 4-5 hours at 37° C., 5% CO2 (During the incubation, the monocytes adhered to the bottom of 96-well plastic culture plate). Following the incubation, the non-adherent lymphocytes were washed with assay medium and the adherent monocytes re-fed with assay medium. After a 48-hour incubation period (37° C., 5% CO2), monocytes were pretreated with various concentrations of representative compounds of present invention (refer to table 6 and 7) (prepared in DMSO) or vehicle (0.5% DMSO) for 30 minutes and stimulated with 1 μg/ml LPS (Escherchia coli 0111:B4, Sigma Chemical Co., St. Louis, Mo.). The incubation was continued for 5 hours at 37° C., 5% CO2. Supernatants were harvested, assayed for IL-6 and TNF-α by ELISA as described by the manufacturer (BD Biosciences, USA). Dexamethasone (10 μM) was used as standard for this assay. […] Biological results for both IL-6 and TNFα are indicated in Table 6 and Table 7 respectively.

[12] = read-out: % Inhibition of mTOR activity at 1 μM

Row | SMILES | IC50 [1] [µM] | pIC50 [2] | pIC50 [4] | pIC50 [7] | inhibition at 1 µM [8, 12] [%] | IC50 [10] [µM] | further results
1 | Cc1ccc(S(=O)(=O)N(C)N=Cc2cnc3ccc(-c4cccnc4)cn23)cc1 [Example 3, N, 4-dimethyl-N′-((6-(pyridine-3-yl)imidazo[1,2-a]pyridine-3-yl)methylene) benzenesulfonohydrazide] | ≥ 5 | 5.30 to 8.00 | 5.30 to 8.00 | 5.30 to 8.00 |  |  | pIC50 [3]: 5.30 to 8.00; pIC50 [5]: 5.30 to 8.00; pIC50 [6]: 5.30 to 8.00
2 | CN(N=Cc1cnc2ccc(-c3cccnc3)cn12)S(=O)(=O)c1ccc(Br)cc1 [Example 8, 4-Bromo-N-methyl-N′-((6-(pyridine-3-yl)imidazo[1,2-a]pyridine-3-yl)methylene)benzenesulfonohydrazide] |  |  |  |  | 30 to 50 |  | pIC50 [9]: 5.30 to 7.00
3 | COc1ccc(S(=O)(=O)N(C)N=Cc2cnc3ccc(-c4cccnc4)cn23)cc1 [Example 12, 4-Methoxy-N-methyl-N′-((6-(pyridine-3-yl)imidazo[1,2-a]pyridine-3-yl)methylene)benzenesulfonohydrazide] |  | 5.30 to 8.00 | 5.30 to 8.00 | 5.30 to 8.00 |  |  | pIC50 [3]: 5.30 to 8.00; pIC50 [5]: 5.30 to 8.00; pIC50 [6]: 5.30 to 8.00
4 | CN(N=Cc1cnc2ccc(-c3cccnc3)cn12)S(=O)(=O)c1ccc(F)c(F)c1 [Example 15, 3,4-difluoro-N-methyl-N′-((6-(pyridine-3-yl)imidazo[1,2-a]pyridine-3-yl)methylene) benzenesulfonohydrazide] |  |  |  |  | 30 to 50 | 0.5 to 1 | pIC50 [9]: 5.30 to 7.00
5 | CN(N=Cc1cnc2ccc(-c3cccnc3)cn12)S(=O)(=O)c1cccc(Cl)c1F [Example 17, 3-Chloro-2-fluoro-N-methyl-N′-((6-(pyridine-3-yl)imidazo[1,2-a]pyridine-3-yl)methylene) benzenesulfonohydrazide] | 0.001 to 5 |  |  |  | 30 to 50 | 0.01 to 0.5 | 
6 | CN(N=Cc1cnc2ccc(-c3cccnc3)cn12)S(=O)(=O)c1cc(C(F)(F)F)cc(C(F)(F)F)c1 [Example 23, N-methyl-N′-((6-(pyridine-3-yl)imidazo[1,2-a]pyridine-3-yl)methylene)-3,5-bis(trifluoromethyl)benzenesulfonohydrazide] | 0.001 to 5 | 5.30 to 8.00 | 5.30 to 8.00 | 5.30 to 8.00 | 30 to 50 | 0.01 to 0.5 | 
7 | CN(N=Cc1cnc2ccc(-c3cccnc3)cn12)S(=O)(=O)c1cccs1 [Example 29, N-methyl-N′-((6-(pyridine-3-yl)imidazo[1,2-a]pyridine-3-yl)methylene) thiophene-2-sulfonohydrazide] |  | 5.30 to 8.00 | 5.30 to 8.00 | 5.30 to 8.00 |  |  | pIC50 [3]: 5.30 to 8.00; pIC50 [5]: 5.30 to 8.00; pIC50 [6]: 5.30 to 8.00
8 | COc1ccc(F)cc1S(=O)(=O)N(C)/N=C/c1cnc2ccc(-c3cccnc3)cn12 [Example 45, (E)-5-fluoro-2-methoxy-N-methyl-N′-((6-(pyridin-3-yl)imidazo[1,2-a]pyridin-3-yl)methylene)benzenesulfonohydrazide] | 0.001 to 5 | 5.30 to 8.00 | 5.30 to 8.00 |  |  |  | pIC50 [11]: 6.00 to 9.00
9 | CCN(/N=C/c1cnc2ccc(-c3cccnc3)cn12)S(=O)(=O)c1cc([N+](=O)[O-])ccc1C [Example 84] | 0.001 to 5 |  |  |  | 30 to 50 | 0.01 to 0.5 | 
10 | Cc1cc(-c2cccnc2)cn2c(/C=N/N(C)S(=O)(=O)c3ccc(F)c(C#N)c3)cnc12 [Example 105, (E)-3-cyano-4-fluoro-N-methyl-N′-((8-methyl-6-(pyridin-3-yl)imidazo[1,2-a]pyridin-3-yl)methylene)benzenesulfonohydrazide] | 0.001 to 5 |  |  |  |  |  | pIC50 [11]: 6.00 to 9.00
11 | Cc1ccc(F)cc1S(=O)(=O)N(C)/N=C/c1cnc2ccc(-c3cc4ccccc4[nH]3)cn12 [Example 115, (E)-N′-((6-(1H-indol-2-yl)imidazo[1,2-a]pyridin-3-yl)methylene)-5-fluoro-N,2-dimethylbenzenesulfonohydrazide] | ≥ 5 |  |  |  |  | 0.01 to 0.5 | pIC50 [8]: 5.00 to 5.30; pIC50 [9]: 5.00 to 5.30
12 | Oc1cccc(-c2nc(N3CCOCC3)c3oc4ncccc4c3n2)c1 [PI-103, reference compound] |  |  |  |  |  |  | inhibition at 0.1 µM ([10]; at 100 nM): 80%; inhibition at 1 µM ([8]; read-out: % Inhibition of mTOR activity at 1 μM (number, standard)): 50%
